Measured values: patent publication US11286268B1, “EIF4E-inhibiting compounds and methods” (EFFECTOR THERAPEUTICS, INC., priority 2019, dated 2022)
Like-named read-outs stand apart in the source and are kept apart here.

Target: recombinant eIF4E (Homo sapiens (Human), UniProt P06730)
Experiment: Fluorescence polarization competition assay for eIF4E binding potency
Experimental: Compounds were screened for eIF4E binding potency using a fluorescence polarization competition assay. All binding reactions were performed in fluorescence polarization buffer (FPB) containing 20 mM Tris pH 7.5, 100 mM NaCl, 1 mM DTT, and 0.02% Tween-20. Final binding reactions contained 75 nM recombinant eIF4E (Beryllium, custom order), 20 nM EDA-m^7GDP-ATTO-550 (Jena Bioscience, NU-827-550) and varying concentrations of the inhibitory compound of interest. Final DMSO concentration in each reaction was 1%.
eIF4E protein was pre-incubated with EDA-m^7GDP-ATTO-550 in FPB at 2× concentrations for 5 minutes prior to the addition of compounds. Compounds (100×) were prepared using 3-fold serial dilutions in 100% DMSO, and subsequently diluted 1:50 in FPB to produce 2× stocks. 50 μl of 2× eIF4E/EDA-m^7GDP-ATTO-550 were transferred to the wells of a 96-well half-area black flat bottom polystyrene plate. 50 μl of 2× test compound were added, and binding reactions were allowed to equilibrate for 30 minutes at room temperature while protected from light. The fluorescent polarization signal was detected using a Victor 2 multi-label counter (Perkin Elmer) and the concentration necessary to achieve inhibition of eIF4E/EDA-m^7GDP-ATTO-550 binding by 50% (IC50) was calculated using data from an 8-point compound dilution series.
In Table 4A, IC50 values of less than 0.05 μM are labelled as “+++”, from 1 to 0.05 μM are labelled as “++”, and greater than 1 μM are labelled as “+”. ND=not determined.

[1] = fluorescence polarization competition, 75 nM recombinant eIF4E, 20 nM EDA-m7GDP-ATTO-550, IC50 class, read-out: elF4E FP
[2] = inhibition of eIF4E/EDA-m7GDP-ATTO-550 binding by 50%, Table 4B calculated values, read-out: IC50

recombinant eIF4E, sequence (P06730 whole entry): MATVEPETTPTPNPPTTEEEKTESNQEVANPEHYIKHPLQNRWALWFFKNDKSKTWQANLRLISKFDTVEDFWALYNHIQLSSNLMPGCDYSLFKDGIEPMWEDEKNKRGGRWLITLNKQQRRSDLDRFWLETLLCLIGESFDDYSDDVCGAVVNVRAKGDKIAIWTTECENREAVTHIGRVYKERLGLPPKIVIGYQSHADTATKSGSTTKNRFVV

IC50 [1]	IC50 [2]	SMILES
50 to 1000 nM	70.7 nM	Cc1nc2cc(C(F)(F)F)cc(C#N)c2c(=O)n1CCOc1ccc(Cl)cc1-c1ccc(C(=O)O)c2ncsc12 [compound 226]
50 to 1000 nM	507 nM	Cc1nc2cc(C(F)(F)F)cc(C#N)c2c(=O)n1CCOc1ccccc1-c1ccnc2c(C(=O)O)csc12 [compound 227]
< 50 nM	23.5 nM	Cc1nc2ccc(C#N)c(C#N)c2c(=O)n1CCOc1ccc(Cl)cc1-c1ccnc2c(C(=O)O)csc12 [compound 228]
< 50 nM	22.2 nM	Cc1nc2c(S(C)(=O)=O)ccc(C#N)c2c(=O)n1CCOc1ccc(Cl)cc1-c1ccnc2c(C(=O)O)csc12 [compound 229]
< 50 nM	14.9 nM	Cc1nc2cc(F)c(C(F)F)c(C#N)c2c(=O)n1CCOc1ccc(Cl)cc1-c1ccnc2c(C(=O)O)csc12 [compound 230]
< 50 nM	12.9 nM	N#Cc1cc(C#N)c2c(=O)n(CCOc3ccc(Cl)cc3-c3cccc(C(=O)O)c3)c(CF)nc2c1 [compound 231]
< 50 nM	16.3 nM	C#Cc1c(C(=O)O)cccc1-c1cc(Cl)ccc1OCCn1c(CF)nc2cc(C#N)cc(C#N)c2c1=O [compound 232]
< 50 nM	28.9 nM	CS(=O)(=O)c1cc(C#N)c2c(=O)n(CCOc3ccc(Cl)cc3-c3cccc(C(=O)O)c3)c(CF)nc2c1 [compound 233]
< 50 nM	20.3 nM	Cc1nc2ccc(OC(F)F)c(C#N)c2c(=O)n1CCOc1ccc(Cl)cc1-c1ccnc2c(C(=O)O)csc12 [compound 236]
50 to 1000 nM	54.8 nM	Cc1nc2c(S(=O)(=O)N(C)C)ccc(C#N)c2c(=O)n1CCOc1ccc(Cl)cc1-c1ccnc2c(C(=O)O)csc12 [compound 237]
< 50 nM	38 nM	CNS(=O)(=O)c1ccc(C#N)c2c(=O)n(CCOc3ccc(Cl)cc3-c3ccnc4c(C(=O)O)csc34)c(C)nc12 [compound 238]
< 50 nM	28.6 nM	Cc1nc2cc(C#N)c(Cl)c(C#N)c2c(=O)n1CCOc1ccc(Cl)cc1-c1ccnc2c(C(=O)O)csc12 [compound 239]
< 50 nM	9.78 nM	Cc1nc2cc(C#N)c(F)c(C#N)c2c(=O)n1CCOc1ccc(Cl)cc1-c1ccnc2c(C(=O)O)csc12 [compound 240]
< 50 nM	4.87 nM	Cc1nc2c(F)cc(F)c(C#N)c2c(=O)n1CCOc1ccc(Cl)cc1-c1ccnc2c(C(=O)O)csc12 [compound 241]
< 50 nM	20.3 nM	Cc1nc2cc(Cl)c(F)c(C#N)c2c(=O)n1CCOc1ccc(Cl)cc1-c1ccnc2c(C(=O)O)csc12 [compound 242]
< 50 nM	31.2 nM	Cc1nc2ccc(Cl)c(C#N)c2c(=O)n1CCOc1ccc(Cl)cc1-c1ccnc2c(C(=O)O)csc12 [compound 244]
< 50 nM	25.6 nM	Cc1nc2ccc(F)c(C#N)c2c(=O)n1CCOc1ccc(Cl)cc1-c1ccnc2c(C(=O)O)csc12 [compound 245]
< 50 nM	43 nM	Cc1nc2cc(C(F)(F)F)c(F)c(C#N)c2c(=O)n1CCOc1ccc(Cl)cc1-c1ccnc2c(C(=O)O)csc12 [compound 246]
50 to 1000 nM	61.1 nM	Cc1nc2cc(Cl)c(S(=O)(=O)N(C)C)c(C#N)c2c(=O)n1CCOc1ccc(Cl)cc1-c1ccnc2c(C(=O)O)csc12 [compound 247]
50 to 1000 nM	52.3 nM	Cc1nc2ccc(S(=O)(=O)N3CCC3)c(C#N)c2c(=O)n1CCOc1ccc(Cl)cc1-c1ccnc2c(C(=O)O)csc12 [compound 248]
< 50 nM	19.8 nM	Cc1nc2ccc(S(=O)(=O)N3CCCC3)c(C#N)c2c(=O)n1CCOc1ccc(Cl)cc1-c1ccnc2c(C(=O)O)csc12 [compound 249]

IC50 [1]	IC50 [2]	SMILES
< 50 nM	43.7 nM	CCN(CC)S(=O)(=O)c1ccc2nc(C)n(CCOc3ccc(Cl)cc3-c3ccnc4c(C(=O)O)csc34)c(=O)c2c1C#N [compound 250]
< 50 nM	–	Cc1nc2ccc(S(=O)(=O)N3CCCCC3)c(C#N)c2c(=O)n1CCOc1ccc(Cl)cc1-c1ccnc2c(C(=O)O)csc12 [compound 251]
< 50 nM	42 nM	Cc1nc2ccc(S(=O)(=O)NCc3ccccc3)c(C#N)c2c(=O)n1CCOc1ccc(Cl)cc1-c1ccnc2c(C(=O)O)csc12 [compound 252]
< 50 nM	46 nM	CCN(Cc1ccccc1)S(=O)(=O)c1ccc2nc(C)n(CCOc3ccc(Cl)cc3-c3ccnc4c(C(=O)O)csc34)c(=O)c2c1C#N [compound 253]
< 50 nM	20.4 nM	Cc1nc2cccc(C#N)c2c(=O)n1CCOc1ccc(Cl)cc1-c1ccnc2c(C(=O)O)csc12 [compound 254]
50 to 1000 nM	78.5 nM	Cc1nc2cc(C(F)(F)F)cc(C#N)c2c(=O)n1C/C=C/c1ccc(Cl)cc1-c1ccnc2c(C(=O)O)csc12 [compound 255]
50 to 1000 nM	104 nM	Cc1nc2cc(Cl)c(Cl)c(C#N)c2c(=O)n1C/C=C/c1ccc(Cl)cc1-c1ccnc2c(C(=O)O)csc12 [compound 256]
50 to 1000 nM	69.2 nM	Cc1nc2cc(Cl)c(Cl)c(C#N)c2c(=O)n1CC#Cc1ccc(Cl)cc1-c1ccnc2c(C(=O)O)csc12 [compound 257]
< 50 nM	37.7 nM	Cc1nc2cc(C#N)cc(C#N)c2c(=O)n1CC#Cc1ccc(Cl)cc1-c1ccnc2c(C(=O)O)csc12 [compound 258]
50 to 1000 nM	> 1000 nM	Cc1nc2cc(C(F)(F)F)cc(C#N)c2c(=O)n1CCOc1ncc(Cl)cc1-c1ccnc2c(C(=O)O)csc12 [compound 259]
< 50 nM	20.4 nM	Cc1nc2cnc(C3CCC(F)(F)CC3)c(C#N)c2c(=O)n1CCOc1ccc(Cl)cc1-c1ccnc2c(C(=O)O)csc12 [compound 260]
< 50 nM	42 nM	Cc1nc2cc(C(F)(F)F)c(CN(C)C)c(C#N)c2c(=O)n1CCOc1ccc(Cl)cc1-c1ccnc2c(C(=O)O)csc12 [compound 261]
< 50 nM	–	Cc1c(F)c2cc(C(F)(F)F)cc(C#N)c2c(=O)n1CCOc1ccc(Cl)cc1-c1ccnc2c(C(=O)O)csc12 [compound 262]
< 50 nM	–	Cc1c(C#N)c2cc(C(F)(F)F)cc(C#N)c2c(=O)n1CCOc1ccc(Cl)cc1-c1ccnc2c(C(=O)O)csc12 [compound 263]
< 50 nM	24.6 nM	Cc1nc2cc(C(F)(F)Cl)cc(C#N)c2c(=O)n1CCOc1ccc(Cl)cc1-c1ccnc2c(C(=O)O)csc12 [compound 264]
50 to 1000 nM	77.1 nM	Cc1nc2cc(C(F)(F)F)cc(C#N)c2c(=O)n1CCOc1ccc(Cl)cc1-c1snc2c(C(=O)O)csc12 [compound 265]
< 50 nM	26.6 nM	Cc1nc2cc(C(F)(F)F)cc(C#N)c2c(=O)n1CCOc1ccc(Cl)cc1-c1ccnc2c(C(=O)O)c(Cl)sc12 [compound 266]
50 to 1000 nM	74.1 nM	C#Cc1sc2c(-c3cc(Cl)ccc3OCCn3c(C)nc4cc(C(F)(F)F)cc(C#N)c4c3=O)ccnc2c1C(=O)O [compound 267]
< 50 nM	34.1 nM	Cc1c(C(F)(F)F)c2cc(C(F)(F)F)cc(C#N)c2c(=O)n1CCOc1ccc(Cl)cc1-c1ccnc2c(C(=O)O)csc12 [compound 268]
< 50 nM	15.6 nM	Cc1c(C(F)F)c2cc(C(F)(F)F)cc(C#N)c2c(=O)n1CCOc1ccc(Cl)cc1-c1ccnc2c(C(=O)O)csc12 [compound 269]
